According to patent US9562043B2 (EA Pharma Co., Ltd., priority 2012, dated 2017):

biological target: T1, human TRPA1 (Homo sapiens, UniProt O75762); experiment: Measurement of TRPA1 antagonist activity (intracellular calcium increase, FLIPR); type: cell-based; conditions: 293T cells transfected with human TRPA1 expression plasmid, allylisothiocyanate 20 μM stimulation, calcium fluorescence, read-out: antagonism hTRPA1
T1 construct: host or cells: human embryonic kidney-derived 293T cells, transient transfection with pcDNA3.1/zeo(+) plasmid
Description: Measurement of TRPA1 Antagonist Activity
Human TRPA1 Expression Plasmid
As cDNA encoding human TRPA1 (GenBank accession No. […]), a commercially available product was purchased (manufactured by Kazusa DNA Research Institute, clone No.: pFN21AB7348, item No.: FHC07217). Using this as a template, full-length human TRPA1 gene was amplified using the primer sequences shown below, by reaction using DNA polymerase (manufactured by Stratagene, trade name: PfuUltra High-Fidelity DNA Polymerase).
A recognition site (underlined) of restriction enzyme HindIII was added to the 5′ side, and XbaI site (underlined) was added to the 3′ side, and GTT of the template sequence was changed to termination codon TAG (bold). The obtained double stranded DNA was enzyme-digested with HindIII and XbaI, and introduced into a multicloning site of expression plasmid pcDNA3.1/zeo(+) (manufactured by Invitrogen) to give a human TRPA1 expression plasmid.
Human embryonic kidney-derived 293T cells were cultured in Dulbecco's Modified Eagle Medium containing 10% fetal bovine serum, 10 unit penicillin, and 10 μg streptomycin, plated on a petri dish having a diameter of 10 cm at 3×10^6 cells, and cultured for 24 hr. A medium containing a reduced amount of serum (manufactured by Invitrogen, trade name: OPTI-MEM, 600 μL), a gene insertion reagent (manufactured by Mirus Bio, trade name: Mirus TransIT-293, 18 μL), and human TRPA1 expression plasmid (6 μg) were mixed, the total amount of the mixture was added to the cells on the petri dish to allow for gene transfer. The cells were recovered about 8 hr later, plated on a poly-D-lysine coated 384 well black/clear bottom plate at 7,500-12,000 cells/well, and cultured overnight.
Measurement of Intracellular Calcium Increase
The 384 well plate was recovered, and the medium was removed. A calcium-bonded fluorescent indicator (manufactured by Molecular Device, trade name: Calcium4 Assay Kit, 40 μL) dissolved in assay buffer (1×HBSS, 20 mM HEPES, pH 7.2) was added, and the cells were stained in a 37° C. incubator for 1 hr. The cells were taken out at room temperature and left standing for 15 min or more. A test substance (10 μL) was added by a 384 well type dispenser, and the mixture was incubated at room temperature for 10 min. Then, allylisothiocyanate (12.5 μL) at a final concentration of 20 μM was added by a fluorescence imaging plate reader (manufactured by Molecular Device, FLIPR), and changes in the relative fluorescence intensity were measured for 5 min.
Test Substance Preparation
The test substance was dissolved in dimethyl sulfoxide and serially diluted with an assay buffer containing 0.1% bovine serum albumin (1×HBSS, 20 mM HEPES, pH 7.2) to a 5-fold concentration of the evaluation concentration. Allylisothiocyanate, which is a known TRPA1 activator, was dissolved in dimethyl sulfoxide to 100 mM, and further diluted 5-fold (100 μM) of the final concentration, like the test substance.
Calculation of Antagonist Activity
Under the test substance-free conditions, the maximum variation range of the fluorescence intensity before and after allylisothiocyanate stimulation was defined to be 100% activity rate, and the variation range before and after buffer stimulation was defined as 0% activity rate. The activity rate on addition of the test substance was determined, and the numerical value obtained by subtracting the activity rate from 100 was defined to be an inhibitory rate. IC50, which is the concentration of the test substance necessary for reaching the 50% inhibitory rate, was calculated from the sigmoid approximate curve by a spreadsheet software Excel-Fit.

T1 sequence (O75762 whole entry): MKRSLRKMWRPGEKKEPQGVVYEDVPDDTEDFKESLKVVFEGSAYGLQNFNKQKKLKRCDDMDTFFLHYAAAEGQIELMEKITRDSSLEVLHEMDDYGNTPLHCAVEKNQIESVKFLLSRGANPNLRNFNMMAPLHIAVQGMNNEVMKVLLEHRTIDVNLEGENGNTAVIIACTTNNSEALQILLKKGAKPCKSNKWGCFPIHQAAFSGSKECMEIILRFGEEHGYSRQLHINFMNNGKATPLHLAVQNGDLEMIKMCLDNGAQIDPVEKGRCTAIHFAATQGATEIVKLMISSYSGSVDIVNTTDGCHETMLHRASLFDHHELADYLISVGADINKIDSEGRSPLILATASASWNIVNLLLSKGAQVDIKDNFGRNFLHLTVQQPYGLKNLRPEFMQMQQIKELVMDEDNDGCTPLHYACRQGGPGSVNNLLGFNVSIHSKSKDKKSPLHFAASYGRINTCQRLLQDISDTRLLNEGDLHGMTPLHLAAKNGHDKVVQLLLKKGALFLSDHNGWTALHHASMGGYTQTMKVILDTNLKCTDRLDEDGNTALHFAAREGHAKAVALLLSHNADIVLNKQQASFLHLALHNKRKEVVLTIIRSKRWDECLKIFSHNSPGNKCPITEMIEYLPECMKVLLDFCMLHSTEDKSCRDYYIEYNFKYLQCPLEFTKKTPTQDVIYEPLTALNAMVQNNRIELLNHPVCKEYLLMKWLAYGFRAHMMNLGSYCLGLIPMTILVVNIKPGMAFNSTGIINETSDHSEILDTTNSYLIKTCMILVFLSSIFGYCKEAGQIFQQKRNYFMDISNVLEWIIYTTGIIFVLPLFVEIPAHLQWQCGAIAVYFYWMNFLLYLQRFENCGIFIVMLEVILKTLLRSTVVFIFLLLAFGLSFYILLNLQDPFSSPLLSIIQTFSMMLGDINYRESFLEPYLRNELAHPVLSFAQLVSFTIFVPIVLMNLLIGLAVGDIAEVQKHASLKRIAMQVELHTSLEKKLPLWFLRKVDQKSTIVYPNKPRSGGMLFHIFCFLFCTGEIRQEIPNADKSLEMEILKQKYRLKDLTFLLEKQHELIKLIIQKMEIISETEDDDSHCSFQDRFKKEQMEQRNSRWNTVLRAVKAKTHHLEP

| IC50 [nM] | SMILES |
| --- | --- |
| 200 | O=C(NCc1csc(-c2ccc(C(F)(F)F)cc2)n1)[C@@H]1CCCN1S(=O)(=O)c1ccc(Cl)s1 [compound 14, (2S)-1-(5-chlorothiophene-2-sulfonyl)-N-({2-[4-(trifluoromethyl)phenyl]-thiazol-4-yl}methyl)-pyrrolidine-2-carboxamide] |
| 240 | O=C(NCc1nc(-c2ccc(C(F)(F)F)cc2)no1)[C@@H]1CCCN1S(=O)(=O)c1ccc(Cl)s1 [compound 15, (2S)-1-(5-chlorothiophene-2-sulfonyl)-N-({3-[4-(trifluoromethyl)phenyl]-1,2,4-oxadiazol-5-yl}methyl)pyrrolidine-2-carboxamide] |
| 5840 | O=C(NCc1nc(-c2ccc(C(F)(F)F)cc2)c[nH]1)[C@@H]1CCCN1S(=O)(=O)c1ccc(Cl)s1 [compound 16, (2S)-1-(5-chlorothiophene-2-sulfonyl)-N-({4-[4-(trifluoromethyl)phenyl]-imidazol-2-yl}methyl)-pyrrolidine-2-carboxamide] |
| 4440 | Cc1cc(CNC(=O)[C@@H]2CCCN2S(=O)(=O)c2ccc(Cl)s2)nn1-c1ccc(Cl)cc1 [compound 17, (2S)-1-(5-chlorothiophene-2-sulfonyl)-N-{[1-(4-chlorophenyl)-5-methylpyrazol-3-yl]methyl)pyrrolidine-2-carboxamide] |
| 170 | O=C(NCc1nc(-c2ccc(C(F)(F)F)cc2)cs1)[C@@H]1C=CCN1S(=O)(=O)c1ccc(Cl)s1 [compound 18, (2S)-1-(5-chlorothiophene-2-sulfonyl)-N-({4-[4-{trifluoromethyl)phenyl]-thiazol-2-yl}methyl)-3,4-didehydropyrrolidine-2-carboxamide] |
| 560 | O=C(NCc1nc(-c2ccc(Cl)cc2)cs1)[C@@H]1C=CCN1S(=O)(=O)c1ccc(Cl)s1 [compound 19, (2S)-1-(5-chlorothiophene-2-sulfonyl)-N-({4-[4-(chloro)phenyl]thiazol-2-yl}methyl)-3,4-didehydropyrrolidine-2-carboxamide] |
| 710 | O=C(NCc1nc(-c2cccc(C(F)(F)F)c2)cs1)[C@@H]1C=CCN1S(=O)(=O)c1ccc(Cl)s1 [compound 21, (2S)-1-(5-chlorothiophene-2-sulfonyl)-N-({4-[3-(trifluoromethyl)phenyl]-thiazol-2-yl}methyl)-3,4-didehydropyrrolidine-2-carboxamide] |
| 110 | O=C(NCc1nc(-c2ccc(OC(F)(F)F)c(F)c2)cs1)[C@@H]1C=CCN1S(=O)(=O)c1ccc(Cl)s1 [compound 22, (2S)-1-(5-chlorothiophene-2-sulfonyl)-N-({4-[3-fluoro-4-(trifluoromethoxy)phenyl]-thiazol-2-yl}methyl)-3,4-didehydropyrrolidine-2-carboxamide] |
| 140 | Cc1sc(CNC(=O)[C@@H]2C=CCN2S(=O)(=O)c2ccc(Cl)s2)nc1-c1ccc(C(F)(F)F)cc1 [compound 23, (2S)-1-(5-chlorothiophene-2-sulfonyl)-N-({5-methyl-4-[4-(trifluoromethyl)phenyl]-thiazol-2-yl}methyl)-3,4-didehydropyrrolidine-2-carboxamide] |
| 470 | C[C@H](NC(=O)[C@@H]1C=CCN1S(=O)(=O)c1ccc(Cl)s1)c1nc(-c2ccc(C(F)(F)F)cc2)cs1 [compound 24, (2S)-1-(5-chlorothiophene-2-sulfonyl)-N-[(1S)-1-{4-[4 (trifluoromethyl)phenyl]-thiazol-2-yl)ethyl]-3,4-didehydropyrrolidine-2-carboxamide] |
| 260 | O=C(NCc1nc(-c2ccc(C(F)(F)F)cc2)co1)[C@@H]1C=CCN1S(=O)(=O)c1ccc(Cl)s1 [compound 25, (2S)-1-(5-chlorothiophene-2-3ulfonyl)-N-({4-[4-(trifluoromethyl)phenyl]-oxazol-2-yl}methyl)-3,4-didehydropyrrolidine-2-carboxamide] |
| 180 | O=C(NCc1csc(-c2ccc(C(F)(F)F)cc2)n1)[C@@H]1C=CCN1S(=O)(=O)c1ccc(Cl)s1 [compound 26, (2S)-1-(5-chlorothiophene-2-sulfonyl)-N-({2-[4-(trifluoromethyl)phenyl]-thiazol-4-yl}methyl)-3,4-didehydropyrrolidine-2-carboxamide] |
| 960 | O=C(NCc1nc(-c2ccc(C(F)(F)F)cc2)cs1)[C@@H]1CC(F)(F)CN1S(=O)(=O)c1ccc(Cl)s1 [compound 27, (2S)-1-(5-chlorothiophene-2-sulfonyl)-N-({4-[4-(trifluoromethyl)phenyl]-thiazol-2-yl}methyl)-4,4-difluoropyrrolidine-2-carboxamide] |
| 2690 | O=C(NCc1nc(-c2ccc(C(F)(F)F)cc2)cs1)[C@@H]1C[C@@H](O)CN1S(=O)(=O)c1ccc(Cl)s1 [compound 28, (2S,4R)-1-(5-chlorothiophene-2-sulfonyl)-N-({4-[4-(trifluoromethyl)phenyl]-thiazol-2-yl}methyl)-hydroxypyrrolidine-2-carboxamide] |
| 580 | O=C(NCc1nc(-c2ccc(C(F)(F)F)cc2)cs1)[C@@H]1CSCN1S(=O)(=O)c1ccc(Cl)s1 [compound 29, (4R)-3-(5-chlorothiophene-2-sulfonyl)-N-({4-[4-(trifluoromethyl)phenyl]-thiazol-2-yl}methyl)-1,3-thiazolidine-4-carboxamide] |
| 520 | CC1(C)SCN(S(=O)(=O)c2ccc(Cl)s2)[C@@H]1C(=O)NCc1nc(-c2ccc(C(F)(F)F)cc2)cs1 [compound 30, (4R)-3-(5-chlorothiophene-2 sulfonyl)-N-({4-[4-(trifluoromethyl)phenyl]-thiazol-2-yl}methyl)-5,5-dimethyl-1,3-thiazolidine-4 carboxamide] |
| 750 | O=C(NCc1nc(-c2ccc(C(F)(F)F)cc2)cs1)[C@@H]1CCN1S(=O)(=O)c1ccc(Cl)s1 [compound 31, (2S)-1-(5-chlorothiophene-2-sulfonyl)-N-({4-[4-(trifluoromethyl)phenyl]-thiazol-2-yl}methyl)azetidine-2-carboxamide] |
| 2790 | O=C(NCc1nc(-c2ccc(OC(F)(F)F)cc2)cs1)[C@@H]1CCN1S(=O)(=O)c1ccc(Cl)s1 [compound 32, (2S)-1-[5-chlorothiophene-2-sulfonyl)-N-({4-[4-(trifluoromethoxy)phenyl]-thiazol-2-yl}methyl)azetidine-2-carboxamide] |
| 740 | C[C@@]1(C(=O)NCc2nc(-c3ccc(C(F)(F)F)cc3)cs2)CCCN1S(=O)(=O)c1ccc(Cl)s1 [compound 33, (2S)-1-(5-chlorothiophene-2-sulfonyl)-N-({4-[4-(trifluoromethyl)phenyl]-thiazol-2-yl}methyl)-2-methylpyrrolidine-2-carboxamide] |
| 890 | C[C@@]1(C(=O)NCc2nc(-c3ccc(OC(F)(F)F)cc3)cs2)CCCN1S(=O)(=O)c1ccc(Cl)s1 [compound 34, (2S)-1-(5-chlorothiophene-2-sulfonyl)-N-({4-[4-(trifluoromethoxy)phenyl]-thiazol-2-yl}methyl)-2-methylpyrrolidine-2-carboxamide] |
| 2500 | C[C@H](NC(=O)[C@]1(C)CCCN1S(=O)(=O)c1ccc(Cl)s1)c1nc(-c2ccc(OC(F)(F)F)cc2)cs1 [compound 35, (2S)-1-(5-chlorothiophene-2-sulfonyl)-N-[(1S)-1-{4-[4-(trifluoromethoxy)phenyl]-thiazol-2-yl}ethyl]-2-methylpyrrolidine-2-carboxamide] |
| 1790 | O=C(NCc1nc(-c2ccc(C(F)(F)F)cc2)cs1)[C@@H]1CCCN1S(=O)(=O)c1cccs1 [compound 36, (2S)-1-(thiophene-2-sulfonyl)-N-({4-[4-(trifluoromethyl)-phenyl]thiazol-2-yl}methyl)pyrrolidine-2-carboxamide] |
| 1000 | O=C(NCc1nc(-c2ccc(C(F)(F)F)cc2)cs1)[C@@H]1CCCN1S(=O)(=O)c1ccc(F)cc1 [compound 37] |
| 980 | O=C(NCc1nc(-c2ccc(C(F)(F)F)cc2)cs1)[C@@H]1CCCN1S(=O)(=O)c1ccc(Cl)cc1 [compound 38] |
